How the values were obtained:
Assay type in all cases: in vivo
[1] = test system: AMARE (Amaranthus retroflexus); test: Pre-emergence herbicidal action against harmful plants; conditions: 504 h, dosage 320 g/ha
Excerpt: (§1) 1. Pre-Emergence Herbicidal Action Against Harmful Plants
(§2) Seeds of monocotyledonous and dicotyledonous weed plants and crop plants are laid out in wood-fiber pots in sandy loam and covered with soil. The compounds of the invention and, for comparative purposes, the compounds known from the prior art, formulated in the form of wettable powders (WP) or as emulsion concentrates (EC), are then applied to the surface of the covering soil as aqueous suspension or emulsion at a water application rate equating to 600 to 800 I/ha with addition of 0.2% of wetting agent. After the treatment, the pots are placed in a greenhouse and kept under good growth conditions for the trial plants. The damage to the test plants is scored visually after a test period of 3 weeks by comparison with untreated controls (herbicidal activity in percent (%): 100% activity=the plants have died, 0% activity=like control plants).

[2] = test system: ALOMY (Alopecurus myosuroides); test: as above; conditions: dosage 320 g/ha, scored visually after 3 weeks (Table C)
Excerpt: as §1, §2

[3] = test system: MATIN (Matricaria inodora); test: as above; conditions: dosage 320 g/ha, scored visually after 3 weeks (Table F)
Excerpt: as §1, §2

[4] = test system: CYPES (Cyperus serotinus); test: as above; conditions: dosage 320 g/ha
Excerpt: as §1, §2

[5] = test system: POLCO (Polygonum convolvulus); test: as above; conditions: dosage 320 g/ha
Excerpt: as §1, §2

[6] = test system: VERPE (Veronica persica); test: as above; conditions: dosage 320 g/ha, scored visually after 3 weeks (Table E)
Excerpt: as §1, §2

[7] = test system: AVEFA (Avena fatua); test: as above; conditions: dosage 320 g/ha, scored visually after 3 weeks vs untreated controls (100% = plants have died, 0% = like control plants)
Excerpt: as §1, §2

[8] = test system: LOLMU (Lolium multiflorum); test: as above; conditions: dosage 320 g/ha
Excerpt: as §1, §2

[9] = test system: PHBPU (Pharbitis purpureum); test: as above; conditions: dosage 320 g/ha, scored visually after 3 weeks (Table I)
Excerpt: as §1, §2

[10] = test system: MATIN (Matricaria inodora); test: Post-emergence herbicidal action against harmful plants; conditions: dosage 80 g/ha
Procedure: (§3) 2. Post-Emergence Herbicidal Action Against Harmful Plants
(§4) Seeds of monocotyledonous and dicotyledonous weed and crop plants are laid out in sandy loam in wood-fiber pots, covered with soil and cultivated in a greenhouse under good growth conditions. 2 to 3 weeks after sowing, the test plants are treated at the one-leaf stage. The compounds of the invention, formulated in the form of wettable powders (WP) or as emulsion concentrates (EC), are then sprayed onto the green parts of the plants in the form of an aqueous suspension or emulsion at a water application rate equating to 600 to 800 I/ha, with addition of 0.2% wetting agent. After the test plants have been left to stand in the greenhouse under optimal growth conditions for about 3 weeks, the action of the preparations is assessed visually in comparison to untreated controls (herbicidal action in percent (%): 100% activity=the plants have died, 0% activity=like control plants).

[11] = test system: POLCO (Polygonum convolvulus); test: as above; conditions: dosage 80 g/ha, assessed visually after about 3 weeks (Table L)
Procedure: as §3, §4

[12] = test system: STEME (Stellaria media); test: as above; conditions: dosage 80 g/ha, assessed visually after about 3 weeks (Table K)
Procedure: as §3, §4

[13] = scored visually after 3 weeks (Table C)
[14] = scored visually after 3 weeks (Table F)
[15] = scored visually after 3 weeks (Table B)
[16] = scored visually after 3 weeks (Table E)
[17] = scored visually after 3 weeks vs untreated controls (100% = plants have died, 0% = like control plants)
[18] = scored visually after 3 weeks (Table I)
[19] = assessed visually after about 3 weeks (Table L)
[20] = assessed visually after about 3 weeks (Table K)

CSc1cccc(C(=O)Nc2nnnn2C)c1C [drawing 27]
pest or weed control at 320 g/ha [1, 13]: 20% | Activity against ALOMY [2]: 20%

CSc1c(C=O)ccc(C(=O)Nc2nnnn2C)c1C [drawing 29]
pest or weed control at 320 g/ha [1, 13]: 0% | Activity against ALOMY [2]: 0%

COSc1c(C#N)ccc(C(=O)Nc2ncnn2C)c1C
Activity against MATIN [3]: 0% | pest or weed control at 320 g/ha [1, 14]: 60%

CSc1c(C=O)ccc(C(=O)Nc2nnnn2C)c1C [drawing 25]
Activity against CYPES [4, 15]: 0% | Activity against POLCO [5, 15]: 0%

CSc1c(C2OCCO2)ccc(C(=O)Nc2nnnn2C)c1C [drawing 28]
pest or weed control at 320 g/ha [1, 13]: 0% | Activity against ALOMY [2]: 0%

CSc1c(C=O)ccc(C(=O)Nc2ncnn2C)c1C
pest or weed control at 320 g/ha [1, 16]: 30% | Activity against VERPE [6]: 0%

CSc1c(C2OCCO2)ccc(C(=O)Nc2ncnn2C)c1C
pest or weed control at 320 g/ha [1, 16]: 0% | Activity against VERPE [6]: 0%

CSc1c(C2OCCO2)ccc(C(=O)Nc2nnnn2C)c1C [drawing 24]
Activity against CYPES [4, 15]: 0% | Activity against POLCO [5, 15]: 30%

COSc1c(C2CC2)ccc(C(=O)Nc2nnnn2C)c1C
pest or weed control at 320 g/ha [1, 13]: 100% | Activity against ALOMY [2]: 90%

CCn1nnnc1NC(=O)c1ccc(C)c(SC)c1C [reference compound]
Activity against AVEFA [7]: 60% | Activity against LOLMU [8, 17]: 30%

CCn1nnnc1NC(=O)c1ccc(C2CC2)c(SOC)c1C
Activity against PHBPU [9]: 100% | Activity against LOLMU [8, 18]: 100%

CSc1c(C2CC2)ccc(C(=O)Nc2nnc(C)o2)c1C
Activity against MATIN [10, 19]: 80% | Activity against POLCO [11]: 60%

CSc1c(Br)ccc(C(=O)Nc2nnnn2C)c1C [reference compound]
Activity against CYPES [4, 17]: 0% | Activity against POLCO [5, 17]: 70%

COSc1c(Cl)ccc(C(=O)Nc2ncnn2C)c1C
Activity against MATIN [3]: 30% | pest or weed control at 320 g/ha [1, 14]: 70%

CCn1nnnc1NC(=O)c1ccc(C)c(SOC)c1C
Activity against PHBPU [9]: 60% | Activity against LOLMU [8, 18]: 30%

CSc1cccc(C(=O)Nc2nnnn2C)c1C [drawing 19, reference compound]
Activity against CYPES [4, 17]: 30% | Activity against POLCO [5, 17]: 0%

CCn1nnnc1NC(=O)c1ccc(C2CC2)c(SC)c1C
Activity against AVEFA [7]: 100% | Activity against LOLMU [8, 17]: 90%

CSc1c(C2CC2)ccc(C(=O)Nc2ncnn2C)c1C
pest or weed control at 320 g/ha [1, 16]: 100% | Activity against VERPE [6]: 90%

CSc1c(I)ccc(C(=O)Nc2nnnn2C)c1C
Activity against CYPES [4, 15]: 0% | Activity against POLCO [5, 15]: 20%

COSc1c(C=O)ccc(C(=O)Nc2ncnn2C)c1C
Activity against MATIN [3]: 0% | pest or weed control at 320 g/ha [1, 14]: 40%

CSc1c(Cl)ccc(C(=O)Nc2nnc(C)o2)c1C
Activity against STEME [12]: 70% | Activity against MATIN [10, 20]: 60%

CSc1c(N(C)C)ccc(C(=O)Nc2nnnn2C)c1C
Activity against CYPES [4, 15]: 30% | Activity against POLCO [5, 15]: 0%

CSc1c(C2CC2)ccc(C(=O)Nc2nnnn2C)c1C [drawing 21]
Activity against CYPES [4, 15]: 90% | Activity against POLCO [5, 15]: 90%

CSc1c(C2CC2)ccc(C(=O)Nc2nnnn2C)c1C [drawing 18]
Activity against CYPES [4, 17]: 90% | Activity against POLCO [5, 17]: 90%

CSc1c(C2CC2)ccc(C(=O)Nc2ncc(C)o2)c1C
Activity against STEME [12]: 90% | Activity against MATIN [10, 20]: 80%

CSc1c(I)ccc(C(=O)Nc2ncnn2C)c1C
pest or weed control at 320 g/ha [1, 16]: 60% | Activity against VERPE [6]: 0%

CSc1c(C(F)(F)F)ccc(C(=O)Nc2nnc(C)o2)c1C
Activity against MATIN [10, 19]: 60% | Activity against POLCO [11]: 0%

CSc1c(I)ccc(C(=O)Nc2nnc(C)o2)c1C
Activity against MATIN [10, 19]: 60% | Activity against POLCO [11]: 20%

COSc1c(C2OCCO2)ccc(C(=O)Nc2ncnn2C)c1C
Activity against MATIN [3]: 0% | pest or weed control at 320 g/ha [1, 14]: 20%

CSc1c(Br)ccc(C(=O)Nc2nnc(C)o2)c1C
Activity against STEME [12]: 60% | Activity against MATIN [10, 20]: 40%

CSc1c(C#N)ccc(C(=O)Nc2ncnn2C)c1C
pest or weed control at 320 g/ha [1, 16]: 80% | Activity against VERPE [6]: 70%

COSc1c(C2CC2)ccc(C(=O)Nc2ncnn2C)c1C
Activity against MATIN [3]: 80% | pest or weed control at 320 g/ha [1, 14]: 90%

Reference: US9988347B2, “Herbicidally active arylcarboxylic acid amides” (BAYER CROPSCIENCE AKTIENGESELLSCHAFT, priority 2014, dated 2018)
